Measurements taken from ChEMBL document CHEMBL4402589, “Discovery of a Potent and Selective NF-κB-Inducing Kinase (NIK) Inhibitor That Has Anti-inflammatory Effects in Vitro and in Vivo” (J Med Chem, 2020).
pIC50, pKd: −log10 of the molar value. The source made the active and inactive calls. The calls are words filed in the database; no cut-off is given here.

Key:
[1] = system: Mus musculus; experiment: Antiinflammatory activity in CCl4-induced C57BL/6 mouse model of liver injury assessed as reduction in CCL2 mRNA expression in liver at 40 mg/kg, po administered 30 mins prior to CCl4 addition followed by compound redosing at 3 hrs interval for 9 hrs and measured 12 hrs […] by SYBR staining based RT-qPCR analysis; type: functional, organism-based
[2] = Tmax in ICR mouse at 15 mg/kg, po by LC-MS/MS analysis; type: ADME, organism-based; settings: in vivo
[3] = system: Mus musculus; experiment: Antiinflammatory activity in CCl4-induced C57BL/6 mouse model of liver injury assessed as reduction in serum ALT level at 40 mg/kg, po administered 30 mins prior to CCl4 addition followed by compound redosing at 3 hrs interval for 9 hrs and measured 12 hrs […]; type: functional, organism-based
[4] = Clearance in ICR mouse at 5 mg/kg, iv by LC-MS/MS analysis; type: ADME, organism-based; settings: in vivo
[5] = Half life in ICR mouse at 15 mg/kg, po by LC-MS/MS analysis; type: ADME, organism-based; settings: in vivo
[6] = Tmax in ICR mouse at 5 mg/kg, iv by LC-MS/MS analysis; type: ADME, organism-based; settings: in vivo
[7] = system: Mus musculus; experiment: Antiinflammatory activity in CCl4-induced C57BL/6 mouse model of liver injury assessed as reduction in TNFalpha mRNA expression in liver at 40 mg/kg, po administered 30 mins prior to CCl4 addition followed by compound redosing at 3 hrs interval for 9 hrs and measured 12 hrs […] by SYBR staining based RT-qPCR analysis; type: functional, organism-based
[8] = target: Mitogen-activated protein kinase kinase kinase 14 (Mus musculus) (UniProt Q9WUL6); experiment: Inhibition of NIK in NIK adenovirus infected C57BL/6 mouse primary hepatocytes assessed as reduction in TNFalpha mRNA expression measured after 16 hrs by SYBR staining based RT-qPCR analysis
[9] = target: T1, Mitogen-activated protein kinase kinase kinase 14 (Homo sapiens, UniProt Q99558); experiment: Inhibition of recombinant human N-terminal GST-tagged NIK (318 to 947 residues) expressed in baculovirus infected Sf9 cells using ultrapure ATP as substrate measured after 1 hr by ADP-glo assay
[10] = Cmax in ICR mouse at 15 mg/kg, po by LC-MS/MS analysis; type: ADME, organism-based; set-up: dose 15 mg/kg, route oral; settings: in vivo
[11] = system: Mus musculus; experiment: Antiinflammatory activity in CCl4-induced C57BL/6 mouse model of liver injury assessed as reduction in immune cell infiltration in liver at 40 mg/kg, po administered 30 mins prior to CCl4 addition followed by compound redosing at 3 hrs interval for 9 hrs and measured 12 hrs […] by F4/80/DAPI staining based immunofluorescence assay; type: functional, organism-based
[12] = Half life in ICR mouse at 5 mg/kg, iv by LC-MS/MS analysis; type: ADME, organism-based; settings: in vivo
[13] = Oral bioavailability in ICR mouse at 15 mg/kg by LC-MS/MS analysis; type: ADME, organism-based; settings: in vivo
[14] = target: Mitogen-activated protein kinase kinase kinase 14 (Mus musculus) (UniProt Q9WUL6); experiment: Inhibition of NIK in NIK/p100 adenoviruses infected C57BL/6 mouse primary hepatocytes assessed as suppression of NIK-mediated proteolysis of p100 to p52 by measuring reduction in p52 level measured after 16 hrs by Western blot analysis
[15] = target: Mitogen-activated protein kinase kinase kinase 14 (Mus musculus) (UniProt Q9WUL6); experiment: Inhibition of NIK in NIK adenovirus infected C57BL/6 mouse primary hepatocytes assessed as reduction in CXCL5 mRNA expression measured after 16 hrs by SYBR staining based RT-qPCR analysis
[16] = system: Mus musculus; experiment: Antiinflammatory activity in CCl4-induced C57BL/6 mouse model of liver injury assessed as reduction in NOS2 mRNA expression in liver at 40 mg/kg, po administered 30 mins prior to CCl4 addition followed by compound redosing at 3 hrs interval for 9 hrs and measured 12 hrs […] by SYBR staining based RT-qPCR analysis; type: functional, organism-based
[17] = system: Mus musculus; experiment: Antiinflammatory activity in CCl4-induced C57BL/6 mouse model of liver injury assessed as reduction in CXCL5 mRNA expression in liver at 40 mg/kg, po administered 30 mins prior to CCl4 addition followed by compound redosing at 3 hrs interval for 9 hrs and measured 12 hrs […] by SYBR staining based RT-qPCR analysis; type: functional, organism-based
[18] = target: Mitogen-activated protein kinase kinase kinase 14 (Mus musculus) (UniProt Q9WUL6); experiment: Inhibition of NIK in NIK adenovirus infected C57BL/6 mouse primary hepatocytes assessed as reduction in CCL2 mRNA expression measured after 16 hrs by SYBR staining based RT-qPCR analysis
[19] = AUC (0 to t) in ICR mouse at 5 mg/kg, iv by LC-MS/MS analysis; type: ADME, organism-based; settings: in vivo
[20] = target: Mitogen-activated protein kinase kinase kinase 14 (Mus musculus) (UniProt Q9WUL6); experiment: Inhibition of NIK in NIK adenovirus infected C57BL/6 mouse primary hepatocytes assessed as reduction in CCL5 mRNA expression measured after 16 hrs by SYBR staining based RT-qPCR analysis
[21] = Cmax in ICR mouse at 5 mg/kg, iv by LC-MS/MS analysis; type: ADME, organism-based; set-up: dose 5 mg/kg, route intravenous; settings: in vivo
[22] = system: Hepatocyte; experiment: Down regulation of NIK expression in NIK/p100 adenoviruses infected C57BL/6 mouse primary hepatocytes at 1 to 10 uM measured after 16 hrs by Western blot analysis; type: functional, cell-based
[23] = Apparent volume of distribution in ICR mouse at 5 mg/kg, iv by LC-MS/MS analysis; type: ADME, organism-based; settings: in vivo, read-out: Vz
[24] = AUC (0 to t) in ICR mouse at 15 mg/kg, po by LC-MS/MS analysis; type: ADME, organism-based; settings: in vivo
[25] = target: Mitogen-activated protein kinase kinase kinase 14 (Mus musculus) (UniProt Q9WUL6); experiment: Inhibition of NIK in NIK adenovirus infected C57BL/6 mouse primary hepatocytes assessed as reduction in NOS2 mRNA expression measured after 16 hrs by SYBR staining based RT-qPCR analysis
[26] = system: Mus musculus; experiment: Antiinflammatory activity in CCl4-induced C57BL/6 mouse model of liver injury assessed as reduction in CCL5 mRNA expression in liver at 40 mg/kg, po administered 30 mins prior to CCl4 addition followed by compound redosing at 3 hrs interval for 9 hrs and measured 12 hrs […] by SYBR staining based RT-qPCR analysis; type: functional, organism-based
[27] = target: T1, Mitogen-activated protein kinase kinase kinase 14; experiment: Binding affinity to wild-type human partial length NIK (L318 to P947 residues) expressed in mammalian expression system by Kinomescan method
[28] = Stability of the compound in pH 1 aqueous solution; type: physicochemical; settings: buffer

Sequence of Mitogen-activated protein kinase kinase kinase 14 (Mus musculus) (Q9WUL6 whole entry, the tested form may be a part): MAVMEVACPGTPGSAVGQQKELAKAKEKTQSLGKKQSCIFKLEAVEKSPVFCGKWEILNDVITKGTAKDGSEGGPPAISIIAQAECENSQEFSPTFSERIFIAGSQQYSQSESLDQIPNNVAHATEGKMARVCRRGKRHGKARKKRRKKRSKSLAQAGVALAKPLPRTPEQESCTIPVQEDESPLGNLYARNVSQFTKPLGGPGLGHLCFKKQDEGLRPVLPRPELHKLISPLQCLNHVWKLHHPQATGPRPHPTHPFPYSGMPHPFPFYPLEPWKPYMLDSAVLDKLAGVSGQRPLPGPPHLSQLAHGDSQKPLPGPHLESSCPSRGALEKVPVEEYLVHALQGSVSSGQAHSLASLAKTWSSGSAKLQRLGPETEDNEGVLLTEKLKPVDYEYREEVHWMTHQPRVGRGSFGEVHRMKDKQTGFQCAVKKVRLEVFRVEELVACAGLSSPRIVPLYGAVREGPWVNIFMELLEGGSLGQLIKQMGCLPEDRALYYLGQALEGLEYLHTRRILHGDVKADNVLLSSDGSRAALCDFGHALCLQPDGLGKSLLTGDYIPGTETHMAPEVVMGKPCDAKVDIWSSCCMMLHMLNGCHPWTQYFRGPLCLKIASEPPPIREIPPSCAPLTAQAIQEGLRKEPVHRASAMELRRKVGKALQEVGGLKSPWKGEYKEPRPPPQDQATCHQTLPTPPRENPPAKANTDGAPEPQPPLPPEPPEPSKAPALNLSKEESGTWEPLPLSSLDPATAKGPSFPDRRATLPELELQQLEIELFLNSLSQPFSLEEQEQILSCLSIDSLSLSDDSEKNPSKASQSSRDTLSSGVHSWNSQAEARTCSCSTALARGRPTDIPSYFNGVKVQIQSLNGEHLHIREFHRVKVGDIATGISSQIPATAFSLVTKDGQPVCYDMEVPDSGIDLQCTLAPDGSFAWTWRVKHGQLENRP
T1 sequence (Q99558 whole entry, the tested form may be a part): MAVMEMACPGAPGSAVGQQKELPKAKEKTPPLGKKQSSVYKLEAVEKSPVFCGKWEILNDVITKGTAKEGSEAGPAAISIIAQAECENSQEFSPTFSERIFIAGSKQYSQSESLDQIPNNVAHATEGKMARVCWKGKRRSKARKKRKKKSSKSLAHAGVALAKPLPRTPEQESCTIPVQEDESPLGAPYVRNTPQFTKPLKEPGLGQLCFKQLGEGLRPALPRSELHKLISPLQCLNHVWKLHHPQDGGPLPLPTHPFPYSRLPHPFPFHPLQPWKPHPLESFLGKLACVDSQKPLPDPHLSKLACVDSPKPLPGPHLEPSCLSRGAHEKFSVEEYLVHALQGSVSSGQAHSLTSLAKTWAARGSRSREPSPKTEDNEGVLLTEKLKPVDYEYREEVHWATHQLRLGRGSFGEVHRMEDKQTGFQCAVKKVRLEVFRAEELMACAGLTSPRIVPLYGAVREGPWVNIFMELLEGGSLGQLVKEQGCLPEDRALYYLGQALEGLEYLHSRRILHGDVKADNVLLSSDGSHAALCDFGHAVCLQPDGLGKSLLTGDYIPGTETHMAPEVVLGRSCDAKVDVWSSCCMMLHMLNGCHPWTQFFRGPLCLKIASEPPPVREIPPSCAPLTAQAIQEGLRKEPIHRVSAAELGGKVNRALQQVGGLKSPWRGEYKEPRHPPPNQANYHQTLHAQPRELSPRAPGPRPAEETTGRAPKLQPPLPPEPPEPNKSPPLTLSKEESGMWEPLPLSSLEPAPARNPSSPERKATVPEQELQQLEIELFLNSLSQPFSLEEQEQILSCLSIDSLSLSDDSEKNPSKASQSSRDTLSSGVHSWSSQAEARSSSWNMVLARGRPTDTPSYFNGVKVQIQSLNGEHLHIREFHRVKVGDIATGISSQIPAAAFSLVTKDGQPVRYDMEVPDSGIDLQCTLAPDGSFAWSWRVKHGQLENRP

C[C@@](O)(C#Cc1ccc(F)c(-c2c[nH]c3cnc(N)nc23)c1)c1nccs1
Activity [1]: Active
Tmax [2]: 0.3 h
Activity [3]: Active
clearance [4]: 92.4 mL/min/kg
half-life [5]: 12 h
Tmax [6]: 4.8 min
Activity [7]: Active
inhibition [8]: Dose-dependent effect
pIC50 [9]: 8.04
Cmax [10]: 510 ng/mL
Activity [11]: Active
half-life [12]: 3.28 h
bioavailability [13]: 13%
inhibition [14]: Dose-dependent effect
inhibition [15]: Dose-dependent effect
Activity [16]: Active
Activity [17]: Active
inhibition [18]: Dose-dependent effect
AUC(0-t) [19]: 891 ng·h/mL
inhibition [20]: Dose-dependent effect
Cmax [21]: 3040 ng/mL
Activity [22]: inactive
Vd [23]: 26 L/kg
AUC(0-t) [24]: 348 ng·h/mL
inhibition [25]: Dose-dependent effect
Activity [26]: Active
pKd [27]: 8.31
Stability [28]: Stable
